pEC50: −log10 of the molar value.
System: NRK-52E
Test: Cytoprotective activity against LPS-induced NRK-52E cells assessed as reduction in cell death measured every 5 min for 72 hrs by xCELLigence based RTCA analysis
Assay type: functional
Details: Rattus norvegicus

Compound | pEC50
CC1(C)CC[C@]2(C(=O)O)CC[C@]3(C)C(=CC[C@@H]4[C@@]5(C)CC[C@H](O)[C@@](C)(CO)[C@@H]5[C@H](O)C[C@]43C)[C@@H]2[C@@H]1O | 6.93
C[C@@H]1CC[C@]2(C(=O)O)CC[C@]3(C)C(=CC[C@@H]4[C@@]5(C)CC[C@H](O)C(CO)(CO)[C@@H]5CC[C@]43C)[C@@H]2[C@]1(C)O | 5.80
CC1(C)CC(O)CC2=C1C(=O)OC2 (stereo unspecified) | < 4.00
CC1=C(C(=O)O)C(C)(C)[C@@H](O)[C@H](O)C1 | < 4.00
C[C@@H]1CC[C@]2(C(=O)O)CC[C@]3(C)C(=CC[C@@H]4[C@@]5(C)CC[C@H](O)[C@@](C)(CO)[C@@H]5[C@H](O)C[C@]43C)[C@@H]2[C@]1(C)O | < 4.00
C=C1C(CO[C@@H]2O[C@H](COC(=O)/C=C/c3cc(OC)c(O)c(OC)c3)[C@@H](O)[C@H](O)[C@H]2O)=CC(=O)CC1(C)C | < 4.00
CC1=CC(=O)CC(C)(C)[C@@H]1CO[C@@H]1O[C@H](CO)[C@@H](O)[C@H](O)[C@H]1O | < 4.00
C=C(C)[C@@H]1CC[C@@H]2[C@]3(CC[C@]4(C)[C@@H]([C@@H]5CC[C@H]([C@](C)(O)CO)OC5)CC[C@@]24C)C[C@]13CCC(=O)OC | < 4.00
COc1cc(/C=C/C(=O)OC[C@H]2O[C@@H](OC[C@H]3C(C)=CC(=O)CC3(C)C)[C@H](O)[C@@H](O)[C@@H]2O)cc(OC)c1O | 4.45
C=C(C)[C@@H]1CC[C@@H]2[C@]3(CC[C@]4(C)[C@@H]([C@H](CO)CC/C=C(/C)CO)CC[C@@]24C)C[C@]13CCC(=O)O | 4.94
CC1=C(CO)C(C)(C)C[C@H](O)[C@@H]1O | < 4.00
COC(=O)CC[C@]12C[C@]13CC[C@]1(C)[C@@H]([C@H](CO)CC/C=C(/C)CO)CC[C@@]1(C)[C@@H]3CC[C@H]2C(C)(C)O | 4.57
CC1(C)CC(=O)C=C(C(=O)O)[C@@]1(C)O | < 4.00
CC1=C(CO)C(C)(C)C[C@H](O)[C@H]1O | < 4.00
C=C(CO)[C@@H]1CC[C@@H]2[C@]3(CC[C@]4(C)[C@@H]([C@H](CO)CC/C=C(/C)CO)CC[C@@]24C)C[C@]13CCC(=O)OC | < 4.00
CC1(C)CC(=O)C=C(C(=O)O)[C@]1(C)O | < 4.00

Compound | pEC50
CC1=CC(=O)CC(C)(C)[C@@H]1CO | 5.85
CC1(C)C[C@H](O)[C@H](O[C@@H]2O[C@H](CO)[C@@H](O)[C@H](O)[C@H]2O)C2=C1C(=O)OC2 | < 4.00
CC1=CC(=O)CC(C)(C)[C@H]1CO[C@@H]1O[C@H](CO)[C@@H](O)[C@H](O)[C@H]1O | 5.92
C=C(C)[C@@H]1CC[C@@H]2[C@]3(CC[C@]4(C)[C@@H]([C@H](CO)CC/C=C(/C)CO)CC[C@@]24C)C[C@]13CCC(=O)OC | < 4.00
CO[C@H]1C[C@]2(C)C(=CC[C@@H]3[C@@]4(C)CC[C@H](O)C(CO)(CO)[C@@H]4CC[C@]32C)c2c1ccc(C)c2C | < 4.00
CC1=C(C(=O)O[C@@H]2O[C@H](CO)[C@@H](O)[C@H](O)[C@H]2O)C(C)(C)CC[C@@H]1O | < 4.00
Cc1ccc2c(c1C)C1=CC[C@@H]3[C@@]4(C)CC[C@H](O)C(CO)(CO)[C@@H]4CC[C@@]3(C)[C@]1(C)C[C@@H]2O | < 4.00
CC1=CC(=O)CC(C)(C)[C@]1(O)CO | < 4.00
C=C(C)[C@@H]1CC[C@@H]2[C@]3(CC[C@]4(C)[C@@H]([C@@H]5CC[C@H]([C@](C)(O)CO)OC5)CC[C@@]24C)C[C@]13CCC(=O)O | 4.42
CC1=C(C(=O)O)C(C)(C)C=CC1=O | < 4.00
CC1=C(C(=O)O)C(C)(C)C[C@H](O)[C@@H]1O | 6.84
CC1=C(CO)C(C)(C)C[C@H](O)[C@@H]1O[C@@H]1O[C@H](CO)[C@@H](O)[C@H](O)[C@H]1O | < 4.00
C[C@H]1[C@H](C)CC[C@]2(C(=O)O)CC[C@]3(C)C(=CC[C@@H]4[C@@]5(C)CC[C@H](O)[C@@](C)(CO)[C@@H]5CC[C@]43C)[C@H]12 | < 4.00
C[C@@H]1CC[C@]2(C(=O)O)CC[C@]3(C)C(=CC[C@@H]4[C@@]5(C)CC[C@H](O)C(C)(C)[C@@H]5CC[C@]43C)[C@@H]2[C@]1(C)O [POMOLIC ACID] | 7.85
Cc1c(C)c2c(c(C)c1O)CCC(C)(C(=O)O)O2 (stereo unspecified) [TROLOX] | 5.72

Source: ChEMBL document CHEMBL4610076, “Renoprotective Mono- and Triterpenoids from the Fruit of Gardenia jasminoides” (J Nat Prod, 2020)
